Test results from US8722849B2, “Polypeptides” (Novo Nordisk A/S, priority 2011, dated 2014).
Starred links: 1 amine or outer side, 2 acyl side, 3 side chain; linkers in the order of their positions; H or OH if unused. Positions of bridges follow the written chain, without caps; N, C: chain ends. Residues, ends and D or L forms follow the SMILES beside them. *: point of attachment. C20 diacid = O=C(O)CCCCCCCCCCCCCCCCCCC(=O)*; C18 diacid = O=C(O)CCCCCCCCCCCCCCCCC(=O)*; γGlu = O=C(O)[C@H](CCC(=O)[*:2])N[*:1]

Assay: Assay (III) ThT fibrillation assay for physical stability
Assay type: physicochemical
Procedure, shortened: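 Freshly prepared formulations, pH-adjusted, with 1 μM ThT; four or eight replicates incubated at 37 °C under 960 rpm orbital shaking. Fluorescence (ex 444/em 485 nm) read every 20 min; […]. Peptide concentration measured by RP-HPLC before and after the run.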

Compound	ThT pH 4.0 lag time (Table 8) [h]	ThT pH 4.0 lag time (Table 9) [h]	ThT pH 4.0 lag time (ThT fibrillation assay) [h]	ThT pH 4.0 lag time (h) (ThT fibrillation assay)
CC[C@H](C)[C@H](NC(=O)[C@@H]1CCCN1C(=O)CNC(=O)[C@H](Cc1ccccc1)NC(=O)[C@H](CC(N)=O)NC(=O)[C@H](CC(N)=O)NC(=O)[C@H](CO)NC(=O)[C@H](CO)NC(=O)[C@H](Cc1c[nH]cn1)NC(=O)[C@H](CCCNC(=N)N)NC(=O)[C@H](CC(C)C)NC(=O)[C@H](Cc1ccccc1)NC(=O)[C@H](CCC(=O)O)NC(=O)[C@H](C)NC(=O)[C@H](CC(C)C)NC(=O)[C@H](CCCNC(=N)N)NC(=O)[C@H](CCC(N)=O)NC(=O)[C@@H](NC(=O)[C@H](C)NC(=O)[C@@H]1CSSC[C@H](NC(=O)[C@H](Cc2c[nH]cn2)NC(=O)CC[C@H](NC(=O)CCCCCCCCCCCCCCCCCCC(=O)O)C(=O)O)C(=O)N[C@@H](CC(N)=O)C(=O)N[C@@H]([C@@H](C)O)C(=O)N[C@@H](C)C(=O)N[C@@H]([C@@H](C)O)C(=O)N1)[C@@H](C)O)C(=O)N[C@@H](CC(C)C)C(=O)N1CCC[C@H]1C(=O)N1CCC[C@H]1C(=O)N[C@H](C(=O)N[C@@H](CC(N)=O)C(=O)N[C@H](C(=O)NCC(=O)N[C@@H](CO)C(=O)N[C@@H](CC(N)=O)C(=O)N[C@H](C(=O)N1CCC[C@H]1C(N)=O)[C@@H](C)O)C(C)C)[C@@H](C)O [Example 90, N-alpha-[(S)-4-Carboxy-4-(19-carboxynonadecanoylamino)butyryl]-[His1,Glu14,Arg17,Pro37]-pramlintide] ({C20 diacid-γGlu}-HCNTATCATQRLAEFLRHSSNNFGPILPPTNVGSNTP-NH2; disulfide 2-7 (inferred); C-terminus assumed)	>45	>45	>45	>45
CC[C@H](C)[C@H](NC(=O)[C@@H]1CCCN1C(=O)CNC(=O)[C@H](Cc1ccccc1)NC(=O)[C@H](CC(N)=O)NC(=O)[C@H](CC(N)=O)NC(=O)[C@H](CO)NC(=O)[C@H](CO)NC(=O)[C@H](Cc1c[nH]cn1)NC(=O)[C@H](Cc1c[nH]cn1)NC(=O)[C@H](CC(C)C)NC(=O)[C@H](Cc1ccccc1)NC(=O)[C@H](CCC(=O)O)NC(=O)[C@H](C)NC(=O)[C@H](CC(C)C)NC(=O)[C@H](CCCNC(=N)N)NC(=O)[C@H](CCC(N)=O)NC(=O)[C@@H](NC(=O)[C@H](C)NC(=O)[C@@H]1CSSC[C@H](NC(=O)[C@H](Cc2c[nH]cn2)NC(=O)CC[C@H](NC(=O)CCCCCCCCCCCCCCCCCCC(=O)O)C(=O)O)C(=O)N[C@@H](CC(N)=O)C(=O)N[C@@H]([C@@H](C)O)C(=O)N[C@@H](C)C(=O)N[C@@H]([C@@H](C)O)C(=O)N1)[C@@H](C)O)C(=O)N[C@@H](CC(C)C)C(=O)N1CCC[C@H]1C(=O)N1CCC[C@H]1C(=O)N[C@H](C(=O)N[C@@H](CC(N)=O)C(=O)N[C@H](C(=O)NCC(=O)N[C@@H](CO)C(=O)N[C@@H](Cc1c[nH]cn1)C(=O)N[C@H](C(=O)N[C@@H](Cc1ccc(O)cc1)C(N)=O)[C@@H](C)O)C(C)C)[C@@H](C)O [Example 76, N-alpha-[(S)-4-Carboxy-4-(19-carboxynonadecanoylamino)butyryl]-[His1,Glu14,His17,His35]-pramlintide] ({C20 diacid-γGlu}-HCNTATCATQRLAEFLHHSSNNFGPILPPTNVGSHTY-NH2; disulfide 2-7 (inferred); C-terminus assumed)	–	–	>45	>45
CC[C@H](C)[C@H](NC(=O)[C@@H]1CCCN1C(=O)CNC(=O)[C@H](Cc1ccccc1)NC(=O)[C@H](CC(N)=O)NC(=O)[C@H](CC(N)=O)NC(=O)[C@H](CO)NC(=O)[C@H](CO)NC(=O)[C@H](Cc1c[nH]cn1)NC(=O)[C@H](CCCNC(=N)N)NC(=O)[C@H](CC(C)C)NC(=O)[C@H](Cc1ccccc1)NC(=O)[C@H](CCC(=O)O)NC(=O)[C@H](C)NC(=O)[C@H](CC(C)C)NC(=O)[C@H](CCCNC(=N)N)NC(=O)[C@H](CCC(N)=O)NC(=O)[C@@H](NC(=O)[C@H](C)NC(=O)[C@@H]1CSSC[C@H](NC(=O)[C@H](CCCCN)NC(=O)[C@H](CCC(=O)O)NC(=O)CC[C@H](NC(=O)CCCCCCCCCCCCCCCCCCC(=O)O)C(=O)O)C(=O)N[C@@H](CC(N)=O)C(=O)N[C@@H]([C@@H](C)O)C(=O)N[C@@H](C)C(=O)N[C@@H]([C@@H](C)O)C(=O)N1)[C@@H](C)O)C(=O)N[C@@H](CC(C)C)C(=O)N1CCC[C@H]1C(=O)N1CCC[C@H]1C(=O)N[C@H](C(=O)N[C@@H](CC(N)=O)C(=O)N[C@H](C(=O)NCC(=O)N[C@@H](CO)C(=O)N[C@@H](Cc1c[nH]cn1)C(=O)N[C@H](C(=O)N[C@@H](Cc1ccc(O)cc1)C(N)=O)[C@@H](C)O)C(C)C)[C@@H](C)O [Example 58, N-alpha-[(S)-4-Carboxy-4-(19-carboxynonadecanoylamino)butyryl]-Glu-[Glu14,Arg17,His35]-pramlintide] ({C20 diacid-γGlu}-EKCNTATCATQRLAEFLRHSSNNFGPILPPTNVGSHTY-NH2; disulfide 3-8 (inferred); C-terminus assumed)	>45	>45	>45	>45
CC[C@H](C)[C@H](NC(=O)[C@@H]1CCCN1C(=O)CNC(=O)[C@H](Cc1ccccc1)NC(=O)[C@H](CC(N)=O)NC(=O)[C@H](CC(N)=O)NC(=O)[C@H](CO)NC(=O)[C@H](CO)NC(=O)[C@H](Cc1c[nH]cn1)NC(=O)[C@H](CCCNC(=N)N)NC(=O)[C@H](CC(C)C)NC(=O)[C@H](Cc1ccccc1)NC(=O)[C@H](CCC(=O)O)NC(=O)[C@H](C)NC(=O)[C@H](CC(C)C)NC(=O)[C@H](CCCNC(=N)N)NC(=O)[C@H](CCC(N)=O)NC(=O)[C@@H](NC(=O)[C@H](C)NC(=O)[C@@H]1CSSC[C@H](NC(=O)CNC(=O)CC[C@H](NC(=O)CCCCCCCCCCCCCCCCCCC(=O)O)C(=O)O)C(=O)N[C@@H](CC(N)=O)C(=O)N[C@@H]([C@@H](C)O)C(=O)N[C@@H](C)C(=O)N[C@@H]([C@@H](C)O)C(=O)N1)[C@@H](C)O)C(=O)N[C@@H](CC(C)C)C(=O)N1CCC[C@H]1C(=O)N1CCC[C@H]1C(=O)N[C@H](C(=O)N[C@@H](CC(N)=O)C(=O)N[C@H](C(=O)NCC(=O)N[C@@H](CO)C(=O)N[C@@H](CC(N)=O)C(=O)N[C@H](C(=O)N1CCC[C@H]1C(N)=O)[C@@H](C)O)C(C)C)[C@@H](C)O [Example 88, N-alpha-[(S)-4-Carboxy-4-(19-carboxynonadecanoylamino)butyryl]-[Gly1,Glu14,Arg17,Pro37]-pramlintide] ({C20 diacid-γGlu}-GCNTATCATQRLAEFLRHSSNNFGPILPPTNVGSNTP-NH2; disulfide 2-7 (inferred); C-terminus assumed)	>45	>45	>45	>45

Results, then the compound that gave them:

ThT pH 4.0 lag time (Table 8) [h]	ThT pH 4.0 lag time (Table 9) [h]	ThT pH 4.0 lag time (ThT fibrillation assay) [h]	ThT pH 4.0 lag time (h) (ThT fibrillation assay)	Compound
–	–	>45	>45	CC[C@H](C)[C@H](NC(=O)[C@@H]1CCCN1C(=O)CNC(=O)[C@H](Cc1ccccc1)NC(=O)[C@H](CC(N)=O)NC(=O)[C@H](CC(N)=O)NC(=O)[C@H](CO)NC(=O)[C@H](CO)NC(=O)[C@H](Cc1c[nH]cn1)NC(=O)[C@H](Cc1c[nH]cn1)NC(=O)[C@H](CC(C)C)NC(=O)[C@H](Cc1ccccc1)NC(=O)[C@H](CCC(=O)O)NC(=O)[C@H](C)NC(=O)[C@H](CC(C)C)NC(=O)[C@H](CCCNC(=N)N)NC(=O)[C@H](CCC(N)=O)NC(=O)[C@@H](NC(=O)[C@H](C)NC(=O)[C@@H]1CSSC[C@H](NC(=O)[C@H](Cc2c[nH]cn2)NC(=O)[C@H](Cc2c[nH]cn2)NC(=O)[C@H](Cc2c[nH]cn2)NC(=O)CC[C@H](NC(=O)CCCCCCCCCCCCCCCCCCC(=O)O)C(=O)O)C(=O)N[C@@H](CC(N)=O)C(=O)N[C@@H]([C@@H](C)O)C(=O)N[C@@H](C)C(=O)N[C@@H]([C@@H](C)O)C(=O)N1)[C@@H](C)O)C(=O)N[C@@H](CC(C)C)C(=O)N1CCC[C@H]1C(=O)N1CCC[C@H]1C(=O)N[C@H](C(=O)N[C@@H](CC(N)=O)C(=O)N[C@H](C(=O)NCC(=O)N[C@@H](CO)C(=O)N[C@@H](Cc1c[nH]cn1)C(=O)N[C@H](C(=O)N[C@@H](Cc1ccc(O)cc1)C(N)=O)[C@@H](C)O)C(C)C)[C@@H](C)O [Example 31, N-alpha-[(S)-4-Carboxy-4-(19-carboxynonadecanoylamino)butyryl]-His-His-[His1,Glu14,His17,His35]-pramlintide] ({C20 diacid-γGlu}-HHHCNTATCATQRLAEFLHHSSNNFGPILPPTNVGSHTY-NH2; disulfide 4-9 (inferred); C-terminus assumed)
30	–	30	30	CC[C@H](C)[C@H](NC(=O)[C@@H]1CCCN1C(=O)CNC(=O)[C@H](Cc1ccccc1)NC(=O)[C@H](CC(N)=O)NC(=O)[C@H](CC(N)=O)NC(=O)[C@H](CO)NC(=O)[C@H](CO)NC(=O)[C@H](Cc1c[nH]cn1)NC(=O)[C@H](CCCNC(=N)N)NC(=O)[C@H](CC(C)C)NC(=O)[C@H](Cc1ccccc1)NC(=O)[C@H](CCC(=O)O)NC(=O)[C@H](C)NC(=O)[C@H](CC(C)C)NC(=O)[C@H](CCCNC(=N)N)NC(=O)[C@H](CCC(N)=O)NC(=O)[C@@H](NC(=O)[C@H](C)NC(=O)[C@@H]1CSSC[C@H](NC(=O)[C@H](CCCCN)NC(=O)[C@H](CCC(=O)O)NC(=O)CC[C@H](NC(=O)CCCCCCCCCCCCCCCCC(=O)O)C(=O)O)C(=O)N[C@@H](CC(N)=O)C(=O)N[C@@H]([C@@H](C)O)C(=O)N[C@@H](C)C(=O)N[C@@H]([C@@H](C)O)C(=O)N1)[C@@H](C)O)C(=O)N[C@@H](CC(C)C)C(=O)N1CCC[C@H]1C(=O)N1CCC[C@H]1C(=O)N[C@H](C(=O)N[C@@H](CC(N)=O)C(=O)N[C@H](C(=O)NCC(=O)N[C@@H](CO)C(=O)N[C@@H](Cc1c[nH]cn1)C(=O)N[C@H](C(=O)N[C@@H](Cc1ccc(O)cc1)C(N)=O)[C@@H](C)O)C(C)C)[C@@H](C)O [Example 62, N-alpha-[(S)-4-Carboxy-4-(17-carboxyheptadecanoylamino)butyryl]-Glu-[Glu14,Arg17,His35]-pramlintide] ({C18 diacid-γGlu}-EKCNTATCATQRLAEFLRHSSNNFGPILPPTNVGSHTY-NH2; disulfide 3-8 (inferred); C-terminus assumed)
